Measured values: patent US20250213575A1, “8-HETEROCYCLIC-3-(PHENYLSULFONYL)-[1,2,3]TRIAZOLO[1,5A]QUINAZOLIN-5(4H)-ONE DERIVATIVES AS ANTI-BACTERIALS” (priority 2022, published 2025)
Marks after values point to notes of the source that are not given here.

Target: AgrA (Staphylococcus aureus, UniProt P0A0I7)
Assay: cell-based
Parameters: species or system S. aureus USA300 strain UAMS-1625
Settings: for Ratio IC50 (in presence of HSA)/IC50 (in absence of HSA): 40 mg/mL HSA vs without HSA
[1] = IC50 at 40 mg/mL HSA, LB medium supplemented with 40 mg/mL human serum albumin
[2] = IC50 without HSA, LB medium, without HSA

Chain of AgrA (P0A0I7 whole entry): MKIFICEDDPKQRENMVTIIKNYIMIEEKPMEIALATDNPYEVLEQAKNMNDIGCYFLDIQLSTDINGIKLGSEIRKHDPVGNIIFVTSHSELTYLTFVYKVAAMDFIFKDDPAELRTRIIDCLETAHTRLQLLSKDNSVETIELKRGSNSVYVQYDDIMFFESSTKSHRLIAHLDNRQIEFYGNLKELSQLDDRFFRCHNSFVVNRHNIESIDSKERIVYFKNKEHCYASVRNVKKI

Cc1ccc(S(=O)(=O)c2nnn3c2[nH]c(=O)c2ccc(N4CCC5C(CCN5C)C4)cc23)c(C)c1 (stereo not drawn) [Compound 39, 3-(2,4-dimethylbenzenesulfonyl)-8-{1-methyl-octahydro-1H-pyrrolo[3,2-c]pyridin-5-yl}-4H,5H-[1,2,3]triazolo[1,5-a]quinazolin-5-one]
Ratio IC50 (in presence of HSA)/IC50 (in absence of HSA): +++ (ratio ≤ 25)
IC50 [1]: 20.3 to 102 µM
IC50 [2]: < 2.03 µM

Cc1ccc(S(=O)(=O)c2n[nH]n3c2nc(=O)c2ccc(N4CCC5(CCN(C)CC5)CC4)cc23)c(C)c1 [Compound 6, 3-(2,4-dimethylbenzenesulfonyl)-8-{9-methyl-3,9-diazaspiro[5.5]undecan-3-yl}-1H,5H-[1,2,3]triazolo[1,5-a]quinazolin-5-one]
Ratio IC50 (in presence of HSA)/IC50 (in absence of HSA): +++ (ratio ≤ 25)
IC50 [1]: 19.2 to 96 µM
IC50 [2]: 1.92 to 9.6 µM

Cc1ccc(S(=O)(=O)c2nnn3c2[nH]c(=O)c2ccc(N4CCC(C(=O)O)CC4)cc23)c(C)c1 [Compound 64, 1-[3-(2,4-Dimethyl-benzenesulfonyl)-5-oxo-4,5-dihydro-[1,2,3]triazolo[1,5-a]quinazolin-8-yl]-piperidine-4-carboxylic acid]
Ratio IC50 (in presence of HSA)/IC50 (in absence of HSA): +++ (ratio ≤ 25)
IC50 [1]: < 20.8 µM
IC50 [2]: < 2.08 µM

Cc1ccc(S(=O)(=O)c2n[nH]n3c2nc(=O)c2ccc(N4CCOC5(CCN(C)CC5)C4)cc23)c(C)c1 [Compound 18, 3-(2,4-dimethylbenzenesulfonyl)-8-{9-methyl-1-oxa-4,9-diazaspiro[5.5]undecan-4-yl}-1H,5H-[1,2,3]triazolo[1,5-a]quinazolin-5-one]
Ratio IC50 (in presence of HSA)/IC50 (in absence of HSA): +++ (ratio ≤ 25)
IC50 [1]: 19.1 to 95.7 µM
IC50 [2]: 1.91 to 9.57 µM

Cc1ccc(S(=O)(=O)c2nnn3c2[nH]c(=O)c2ccc(N4CCN(C)C(C)(C)C4)cc23)c(C)c1 [Compound 29, 3-(2,4-dimethylbenzenesulfonyl)-8-(3,3,4-trimethylpiperazin-1-yl)-4H,5H-[1,2,3]triazolo[1,5-a]quinazolin-5-one]
Ratio IC50 (in presence of HSA)/IC50 (in absence of HSA): ++ (ratio ≤ 125)
IC50 [1]: 20.8 to 104 µM
IC50 [2]: 2.08 to 10.4 µM

Cc1ccc(S(=O)(=O)c2nnn3c2[nH]c(=O)c2ccc(N4CC(C)N(C)C(C)C4)cc23)c(C)c1 (stereo not drawn) [Compound 27, 3-(2,4-dimethylbenzenesulfonyl)-8-(3,4,5-trimethylpiperazin-1-yl)-4H,5H-[1,2,3]triazolo[1,5-a]quinazolin-5-one]
Ratio IC50 (in presence of HSA)/IC50 (in absence of HSA): +++ (ratio ≤ 25)
IC50 [1]: 20.8 to 104 µM
IC50 [2]: < 2.08 µM

Cc1ccc(S(=O)(=O)c2nnn3c2[nH]c(=O)c2cc(O)c(N4CC5(CN(C)C5)C4)cc23)c(C)c1 [Compound 2, 3-(2,4-dimethylbenzenesulfonyl)-7-hydroxy-8-{6-methyl-2,6-diazaspiro[3.3]heptan-2-yl}-4H,5H-[1,2,3]triazolo[1,5-a]quinazolin-5-one]
Ratio IC50 (in presence of HSA)/IC50 (in absence of HSA): +++ (ratio ≤ 25)
IC50 [1]: < 20.8 µM
IC50 [2]: < 2.08 µM

Cc1ccc(S(=O)(=O)c2nnn3c2[nH]c(=O)c2ccc(N4CC5(CN(C)C5)C4)cc23)c(C)c1 [Compound 14, 3-(2,4-dimethylbenzenesulfonyl)-8-{6-methyl-2,6-diazaspiro[3.3]heptan-2-yl}-4H,5H-[1,2,3]triazolo[1,5-a]quinazolin-5-one]
Ratio IC50 (in presence of HSA)/IC50 (in absence of HSA): +++ (ratio ≤ 25)
IC50 [1]: 21.5 to 108 µM
IC50 [2]: 2.15 to 10.8 µM

Cc1ccc(S(=O)(=O)c2n[nH]n3c2nc(=O)c2ccc(N4CCOC5(CCNCC5)C4)cc23)c(C)c1 [Compound 17, 3-(2,4-dimethylbenzenesulfonyl)-8-{1-oxa-4,9-diazaspiro[5.5]undecan-4-yl}-1H,5H-[1,2,3]triazolo[1,5-a]quinazolin-5-one]
Ratio IC50 (in presence of HSA)/IC50 (in absence of HSA): +++ (ratio ≤ 25)
IC50 [1]: 19.7 to 98.3 µM
IC50 [2]: 1.97 to 9.83 µM

COCCOc1cc2c(cc1O)c(=O)[nH]c1c(S(=O)(=O)c3ccc(C)cc3C)nnn12 [58 (WO 2020/109350), reference compound]
IC50 (IC50 at 40 mg/mL HSA (cells marked *), marked *: activity in presence of 50% of human serum, not determined in 40 mg/mL HSA): > 112 µM
IC50 [2]: < 2.25 µM
Ratio (cells marked *) (calculated based on activity in presence of 50% of human serum): +* (ratio > 125)
IC50 (concentration inhibiting the expression of lacZ, in the absence of HSA or HS): < 2.25 µM

Cc1ccc(S(=O)(=O)c2nnn3c2[nH]c(=O)c2ccc(N4CCN(C)CC4)cc23)c(C)c1 [Compound 22, 3-(2,4-dimethylbenzenesulfonyl)-8-(4-methylpiperazin-1-yl)-4H,5H-[1,2,3]triazolo[1,5-a]quinazolin-5-one]
Ratio IC50 (in presence of HSA)/IC50 (in absence of HSA): +++ (ratio ≤ 25)
IC50 [1]: 22.1 to 110 µM
IC50 [2]: < 2.21 µM

Cc1ccc(S(=O)(=O)c2nnn3c2[nH]c(=O)c2ccc(N4CCCOCC4)cc23)c(C)c1 [Compound 48, 3-(2,4-dimethylbenzenesulfonyl)-8-(1,4-oxazepan-4-yl)-4H,5H-[1,2,3]triazolo[1,5-a]quinazolin-5-one]
Ratio IC50 (in presence of HSA)/IC50 (in absence of HSA): ++ (ratio ≤ 125)
IC50 [1]: 22 to 110 µM
IC50 [2]: < 2.2 µM

COCCN1CCN(c2ccc3c(=O)[nH]c4c(S(=O)(=O)c5ccc(C)cc5C)nnn4c3c2)CC1 [Compound 42, 3-(2,4-dimethylbenzenesulfonyl)-8-[4-(2-methoxyethyl)piperazin-1-yl]-4H,5H-[1,2,3]triazolo[1,5-a]quinazolin-5-one]
Ratio IC50 (in presence of HSA)/IC50 (in absence of HSA): +++ (ratio ≤ 25)
IC50 [1]: 20.1 to 101 µM
IC50 [2]: 2.01 to 10.1 µM

3-(2,4-dimethylbenzenesulfonyl)-8-{9-methyl-2,9-diazaspiro[5.5]undecan-2-yl}-1H,5H-[1,2,3]triazolo[1,5-a]quinazolin-5-one [Compound 5]
Ratio IC50 (in presence of HSA)/IC50 (in absence of HSA): +++ (ratio ≤ 25)
IC50 at 40 mg/mL HSA (LB medium supplemented with 40 mg/mL human serum albumin): ++ (10 μg/mL < IC50 ≤ 50 μg/mL)
IC50 without HSA (LB medium, without HSA): +++ (IC50 ≤ 1 μg/mL)

Cc1ccc(S(=O)(=O)c2nnn3c2[nH]c(=O)c2ccc(N4CCN(CCN)CC4)cc23)c(C)c1 [Compound 57, 8-[4-(2-aminoethyl)piperazin-1-yl]-3-(2,4-dimethylbenzenesulfonyl)-4H,5H-[1,2,3]triazolo[1,5-a]quinazolin-5-one]
Ratio IC50 (in presence of HSA)/IC50 (in absence of HSA): +++ (ratio ≤ 25)
IC50 [1]: 20.8 to 104 µM
IC50 [2]: 2.08 to 10.4 µM

Cc1ccc(S(=O)(=O)c2nnn3c2[nH]c(=O)c2ccc(N4CCC(N)CC4)cc23)c(C)c1 [Compound 33, 8-(4-aminopiperidin-1-yl)-3-(2,4-dimethylbenzenesulfonyl)-4H,5H-[1,2,3]triazolo[1,5-a]quinazolin-5-one]
Ratio IC50 (in presence of HSA)/IC50 (in absence of HSA): +++ (ratio ≤ 25)
IC50 [1]: < 22.1 µM
IC50 [2]: < 2.21 µM

CNC1CCN(c2ccc3c(=O)[nH]c4c(S(=O)(=O)c5ccc(C)cc5C)nnn4c3c2)CC1 [Compound 31, 3-(2,4-dimethylbenzenesulfonyl)-8-[4-(methylamino)piperidin-1-yl]-4H,5H-[1,2,3]triazolo[1,5-a]quinazolin-5-one]
Ratio IC50 (in presence of HSA)/IC50 (in absence of HSA): +++ (ratio ≤ 25)
IC50 [1]: 21.4 to 107 µM
IC50 [2]: < 2.14 µM

Cc1ccc(S(=O)(=O)c2n[nH]n3c2nc(=O)c2ccc(N4CCC5(CC4)CNCCO5)cc23)c(C)c1 [Compound 15, 3-(2,4-dimethylbenzenesulfonyl)-8-{1-oxa-4,9-diazaspiro[5.5]undecan-9-yl}-1H,5H-[1,2,3]triazolo[1,5-a]quinazolin-5-one]
Ratio IC50 (in presence of HSA)/IC50 (in absence of HSA): +++ (ratio ≤ 25)
IC50 [1]: 19.7 to 98.3 µM
IC50 [2]: < 1.97 µM

Cc1ccc(S(=O)(=O)c2nnn3c2[nH]c(=O)c2ccc(N4CCN5CCC[C@H]5C4)cc23)c(C)c1 [Compound 37, 8-[(8aS)-octahydropyrrolo[1,2-a]pyrazin-2-yl]-3-(2,4-dimethylbenzenesulfonyl)-4H,5H-[1,2,3]triazolo[1,5-a]quinazolin-5-one]
Ratio IC50 (in presence of HSA)/IC50 (in absence of HSA): +++ (ratio ≤ 25)
IC50 [1]: 20.9 to 104 µM
IC50 [2]: 2.09 to 10.4 µM

Cc1ccc(S(=O)(=O)c2nnn3c2[nH]c(=O)c2ccc(N4CC[C@@H](N)C4)cc23)c(C)c1 [Compound 35, 8-[(3R)-3-aminopyrrolidin-1-yl]-3-(2,4-dimethylbenzenesulfonyl)-4H,5H-[1,2,3]triazolo[1,5-a]quinazolin-5-one]
Ratio IC50 (in presence of HSA)/IC50 (in absence of HSA): +++ (ratio ≤ 25)
IC50 [1]: 22.8 to 114 µM
IC50 [2]: < 2.28 µM

Cc1ccc(S(=O)(=O)c2nnn3c2[nH]c(=O)c2ccc(N4CCN5CCC[C@@H]5C4)cc23)c(C)c1 [Compound 38, 8-[(8aR)-octahydropyrrolo[1,2-a]pyrazin-2-yl]-3-(2,4-dimethylbenzenesulfonyl)-4H,5H-[1,2,3]triazolo[1,5-a]quinazolin-5-one]
Ratio IC50 (in presence of HSA)/IC50 (in absence of HSA): +++ (ratio ≤ 25)
IC50 [1]: 20.9 to 104 µM
IC50 [2]: 2.09 to 10.4 µM

CCN(CC)CCC(=O)N1CCN(c2ccc3c(=O)[nH]c4c(S(=O)(=O)c5ccc(C)cc5C)nnn4c3c2)CC1 [Compound 58, 8-{4-[3-(diethylamino)propanoyl]piperazin-1-yl}-3-(2,4-dimethylbenzenesulfonyl)-4H,5H-[1,2,3]triazolo[1,5-a]quinazolin-5-one]
IC50 [1]: 17.7 to 88.4 µM
IC50 [2]: 1.77 to 8.84 µM

Cc1ccc(S(=O)(=O)c2nnn3c2[nH]c(=O)c2ccc(N4CCC(N(C)C)CC4)cc23)c(C)c1 [Compound 32, 8-[4-(dimethylamino)piperidin-1-yl]-3-(2,4-dimethylbenzenesulfonyl)-4H,5H-[1,2,3]triazolo[1,5-a]quinazolin-5-one]
Ratio IC50 (in presence of HSA)/IC50 (in absence of HSA): +++ (ratio ≤ 25)
IC50 [1]: 20.8 to 104 µM
IC50 [2]: 2.08 to 10.4 µM

Cc1ccc(S(=O)(=O)c2nnn3c2[nH]c(=O)c2ccc(N4CCN(C(C)CO)CC4)cc23)c(C)c1 (stereo not drawn) [Compound 44, 3-(2,4-dimethylbenzenesulfonyl)-8-[4-(1-hydroxypropan-2-yl)piperazin-1-yl]-4H,5H-[1,2,3]triazolo[1,5-a]quinazolin-5-one]
Ratio IC50 (in presence of HSA)/IC50 (in absence of HSA): ++ (ratio ≤ 125)
IC50 [1]: 20.1 to 101 µM
IC50 [2]: < 2.01 µM
